Data from patent EP1311531B1, “STEROID DERIVED ANTIBIOTICS” (Brigham Young University, priority 2000, dated 2002).
Values after ≈ are worked out from the molar mass of the structure shown. Read-outs that look alike come from different tables or passages of the source.

Key:
[1] = test system: Staphylococcus aureus ATCC 25923; assay: MIC and MBC measurement; format: cell-based; conditions: ATCC25923, Table 10, Staphylococcus aureus ATCC 25923; for MIC: read-out: MIC
In short: (§1)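 Tube dilution in tryptic soy broth with compounds dissolved in water as HCl salts; stationary incubation 37°C for 24 hours, MIC from turbidity at 760 nm. MBC from subculture of non-turbid samples on TSA plates, CFU/mL compared with the original inoculum.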

[2] = test system: Escherichia coli ATCC 25922; assay: MIC and MBC measurement; format: cell-based; conditions: Escherichia coli, ATCC25922, Table 10, Escherichia coli ATCC 25922; for MIC: read-out: MIC
In short: as §1

[3] = test system: Escherichia coli ATCC 25922; conditions: ATCC25922
Protocol: FICs can be performed by checkerboard titrations of compounds in one dimension of a microtiter plate, and of antibiotics in the other dimension, for example. The FIC is calculated by looking at the impact of one antibiotic on the MIC of the other and vice versa. […] As used herein, FIC can be determined as follows: FIC = (MIC(compound in combination))/(MIC(compound alone)) + (MIC(antibiotic in combination))/(MIC(antibiotic alone)) [formula]
Aliquots of 1 mL of the suspension were added to test tubes containing 1 mL TSB and incrementally varied concentrations of cholic acid derivatives and/or erythromycin or novobiocin. […] Additionally, an alliquot from each of the samples showing no measurable turbidity was subcultured on TSA plates (alliquots were diluted to provide fewer than 300 CFU). Colonies that grew on the subculture after overnight incubation were counted and the number of CFU/mL in the samples were calculated. The calculated values were compared to the number of CFU/mL in the original inoculum.
Concentrations of 0.5, 1.0 or 3.0 µg/mL of these antibiotics were used, and the concentrations of the cholic acid derivatives required to inhibit bacterial growth of Gram-negative strains were determined.

E. coli (ATCC 10798) = assay: Sensitization to erythromycin or novobiocin (outer membrane permeabilization, FIC); format: cell-based, Escherichia coli; conditions: Table 9; Escherichia coli (ATCC 10798)
In short: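 E. coli in TSB received cholic acid derivatives, then erythromycin or novobiocin 15 minutes later, in checkerboard titration, stationary at 37°C for 24 hours. Turbidity was read at 760 nm; clear samples were subcultured on TSA for CFU/mL versus inoculum. FIC = sum of MIC-in-combination/MIC-alone ratios for compound and antibiotic.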

[4] = test system: Klebsiella pneumonia ATCC 13883; assay: Sensitization to erythromycin, novobiocin or rifampicin (permeabilization, FIC); format: cell-based, Klebsiella pneumoniae
[5] = test system: Escherichia coli ATCC 25922; assay: as above; conditions: Table 13; with rifampicin (order of b151); Escherichia coli ATCC 25922
[6] = test system: Pseudomonas aeruginosa ATCC 27853; assay: as above; format: cell-based
[7] = test system: Salmonella typhimurium ATCC 14028; assay: as above; format: cell-based
[8] = Minimum hemolytic concentration (MHC); format: cell-based; conditions: Table 10
Protocol: Minimum inhibition concentrations (MIC) and minimum hemolytic concentrations (MHC) were measured as described in Li et al., Antimicrob. Agents. Chemother., 1999, 43, 1347. […]

[9] = Table 12, with novobiocin (order of b151), Klebsiella pneumonia ATCC 13883
[10] = Table 13, with rifampicin (order of b151), Klebsiella pneumonia ATCC 13883
[11] = Table 12, with novobiocin (order of b151), Pseudomonas aeruginosa ATCC 27853
[12] = Table 13, with rifampicin (order of b151), Pseudomonas aeruginosa ATCC 27853^b (footnote b not given)
[13] = Table 11, with erythromycin (order of b151)
[14] = Table 12, with novobiocin (order of b151)

SMILES | MBC [1] | MIC [1] | MBC [2] | MIC [2] | concentration required for bacterial growth inhibition [3] | (a) Concentration required to lower the MIC of erythromycin from 70 to 1 µg/mL (E. coli (ATCC 10798)) | (b) MBC with 1 µg/mL erythromycin (E. coli (ATCC 10798)) | (d) Concentration required to lower the MIC of novobiocin from >500 to 1 µg/mL (E. coli (ATCC 10798)) | FIC^c (FIC values with erythromycin) (E. coli (ATCC 10798)) | FIC^c (FIC values with novobiocin) (E. coli (ATCC 10798)) | FIC ([4]; ATCC13883) | concentration required for bacterial growth inhibition ([4]; ATCC13883) | concentration required for bacterial growth inhibition [4, 9] | FIC [4, 10] | concentration required for bacterial growth inhibition [4, 10] | FIC [5] | concentration required for bacterial growth inhibition [5] | FIC ([6]; ATCC27853) | concentration required for bacterial growth inhibition ([6]; ATCC27853) | concentration required for bacterial growth inhibition [6, 11] | further results
C[C@]12CC[C@@H](OCCCN)C[C@H]1C[C@@H](OCCCN)[C@@H]1[C@@H]2C[C@H](OCCCN)[C@]2(C)[C@@H](O)CC[C@@H]12 [Compound 106] | 54 µg/mL (≈ 109 µM) | 8.6 µg/mL (≈ 17.3 µM) | 90 µg/mL (≈ 182 µM) | 80 µg/mL (≈ 161 µM) | 4.7 µg/mL | 30 µg/mL | 160 µg/mL | 50 µg/mL | 0.23 | 0.36 | 0.66 | 3.6 µg/mL | 8.9 µg/mL | 0.044 | 1.8 µg/mL | 0.12 | 4.2 µg/mL | 0.22 | 16 µg/mL | 30 µg/mL | FIC [6, 12]: 0.17; FIC [7, 13]: 0.088; concentration required for bacterial growth inhibition [7, 13]: 7.1 µg/mL; FIC [7, 14]: 0.094; concentration required for bacterial growth inhibition [7, 14]: 8.4 µg/mL; MHC [8]: >100 µg/mL
CCCOCCC[C@@H](C)[C@H]1CC[C@H]2[C@@H]3[C@H](OCCCN)C[C@@H]4C[C@H](OCCCN)CC[C@]4(C)[C@H]3C[C@H](OCCCN)[C@]12C [Compound 112] | 4.2 µg/mL (≈ 6.91 µM) | 0.55 µg/mL (≈ 0.905 µM) | 7.4 µg/mL (≈ 12.2 µM) | 6.6 µg/mL (≈ 10.9 µM) | 0.40 µg/mL | 0.4 µg/mL | 4.0 µg/mL | 0.8 µg/mL | 0.048 | 0.085 | 0.035 | 0.1 µg/mL | 0.19 µg/mL | 0.031 | 0.11 µg/mL | 0.19 | 0.81 µg/mL | 0.59 | 1.0 µg/mL | 0.72 µg/mL | FIC [6, 12]: 0.15; FIC [7, 13]: 0.019; concentration required for bacterial growth inhibition [7, 13]: 0.20 µg/mL; FIC [7, 14]: 0.015; concentration required for bacterial growth inhibition [7, 14]: 0.39 µg/mL; MHC [8]: 5.9 µg/mL
